Reference: article PMC5916808 (Journal of medicinal chemistry, 2017)
Several values for one entry are separate records, joined by “and”; a condition that tells them apart may be missing. Identical values can stand only once.

Experiments:
[1] = system: GluN1/GluN2A, GluN1/GluN2B, GluN1/GluN2C, and GluN1/GluN2D NMDA receptors; experiment: Two-electrode voltage clamp, activity profile across GluN2 subunits; type: cell-based, rat; conditions: potentiation of response to maximal glutamate and glycine
[2] = Solubility of test compound in oocyte recording solution; type: physicochemical; conditions: aqueous buffer
[3] = ref Jensen, Egebjerg, Bundgaard, unpublished data; cited from earlier work
[4] = system: AMPA or kainate receptors; conditions: cited from earlier work
[5] = cited from earlier work
GluN1/GluN2B receptors = conditions: noncompetitive inhibitor; cited from earlier work
[6] = target: T1, GluN1/GluN2D NMDA receptors (Rattus norvegicus, UniProt Q62645); conditions: 30 μM; previously published data; cited from earlier work
[7] = target: T2, GluN1/GluN2C NMDA receptors (Rattus norvegicus, UniProt Q00961); conditions: 30 μM; previously published data; cited from earlier work
[8] = target: T2, GluN1/GluN2C NMDA receptors; type: cell-based
[9] = target: T1, GluN1/GluN2D NMDA receptors; type: cell-based
GluK2 = GluK2 (Rattus norvegicus, UniProt P42260); experiment: Two-electrode voltage clamp, GluK2 homomeric receptors in Xenopus oocytes; type: cell-based; conditions: 30 μM compound co-applied with 100 μM glutamate and 30 μM glycine, n=9
[10] = target: GluN1/GluN2B NMDA receptors (Rattus norvegicus, UniProt Q00960); type: cell-based; conditions: for fold increase in potency at GluN2B, thioamide compared to amide: 138 vs 2, 142 vs 97
[11] = Pharmacokinetics and brain penetration after IP dosing, LC/MS/MS; type: in vivo, C57Bl/6 mice
[12] = target: GluN1/GluN2D NMDA receptors (Rattus norvegicus, UniProt P35439+Q62645); type: cell-based
[13] = 30 μM co-applied with either 30 μM glutamate or 10 μM glycine
[14] = percentage of the initial glutamate (100 μM) and glycine (30 μM) current

T1 sequence (Q62645 28-1323, other chains not shown): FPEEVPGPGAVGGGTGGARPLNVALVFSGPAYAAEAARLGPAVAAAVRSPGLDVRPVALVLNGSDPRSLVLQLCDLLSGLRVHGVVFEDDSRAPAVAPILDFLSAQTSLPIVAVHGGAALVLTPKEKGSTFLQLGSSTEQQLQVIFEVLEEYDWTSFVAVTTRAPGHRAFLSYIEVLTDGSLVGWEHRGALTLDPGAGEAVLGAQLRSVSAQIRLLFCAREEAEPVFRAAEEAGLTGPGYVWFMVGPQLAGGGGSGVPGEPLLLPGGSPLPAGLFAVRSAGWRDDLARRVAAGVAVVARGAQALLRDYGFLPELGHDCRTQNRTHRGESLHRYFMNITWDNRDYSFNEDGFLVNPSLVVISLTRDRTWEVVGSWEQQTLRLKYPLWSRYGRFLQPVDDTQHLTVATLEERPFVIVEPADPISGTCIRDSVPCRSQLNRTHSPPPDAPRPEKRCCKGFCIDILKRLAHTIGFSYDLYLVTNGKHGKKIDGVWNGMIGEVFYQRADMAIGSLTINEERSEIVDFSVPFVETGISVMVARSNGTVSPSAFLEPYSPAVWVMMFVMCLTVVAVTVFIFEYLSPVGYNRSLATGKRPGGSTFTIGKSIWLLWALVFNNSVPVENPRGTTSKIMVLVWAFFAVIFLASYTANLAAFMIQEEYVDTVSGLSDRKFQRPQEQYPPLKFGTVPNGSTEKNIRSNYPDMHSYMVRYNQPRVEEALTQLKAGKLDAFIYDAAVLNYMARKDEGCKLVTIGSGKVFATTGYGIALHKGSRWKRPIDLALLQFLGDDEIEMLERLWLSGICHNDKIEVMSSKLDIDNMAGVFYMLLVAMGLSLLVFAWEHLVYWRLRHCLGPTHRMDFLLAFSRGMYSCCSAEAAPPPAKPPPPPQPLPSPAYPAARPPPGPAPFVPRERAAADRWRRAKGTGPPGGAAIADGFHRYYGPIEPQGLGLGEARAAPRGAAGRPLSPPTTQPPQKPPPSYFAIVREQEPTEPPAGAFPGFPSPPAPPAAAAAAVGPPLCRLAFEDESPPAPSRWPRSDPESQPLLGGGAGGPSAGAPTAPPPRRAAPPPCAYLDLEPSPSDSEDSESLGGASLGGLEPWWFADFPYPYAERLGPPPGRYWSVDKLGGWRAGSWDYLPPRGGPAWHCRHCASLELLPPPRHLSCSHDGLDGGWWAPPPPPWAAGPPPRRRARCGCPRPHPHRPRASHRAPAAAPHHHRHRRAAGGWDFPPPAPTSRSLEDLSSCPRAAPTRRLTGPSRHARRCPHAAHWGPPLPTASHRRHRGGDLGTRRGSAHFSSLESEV
Sequence of GluN1/GluN2B NMDA receptors (Q00960 27-1482, other chains not shown): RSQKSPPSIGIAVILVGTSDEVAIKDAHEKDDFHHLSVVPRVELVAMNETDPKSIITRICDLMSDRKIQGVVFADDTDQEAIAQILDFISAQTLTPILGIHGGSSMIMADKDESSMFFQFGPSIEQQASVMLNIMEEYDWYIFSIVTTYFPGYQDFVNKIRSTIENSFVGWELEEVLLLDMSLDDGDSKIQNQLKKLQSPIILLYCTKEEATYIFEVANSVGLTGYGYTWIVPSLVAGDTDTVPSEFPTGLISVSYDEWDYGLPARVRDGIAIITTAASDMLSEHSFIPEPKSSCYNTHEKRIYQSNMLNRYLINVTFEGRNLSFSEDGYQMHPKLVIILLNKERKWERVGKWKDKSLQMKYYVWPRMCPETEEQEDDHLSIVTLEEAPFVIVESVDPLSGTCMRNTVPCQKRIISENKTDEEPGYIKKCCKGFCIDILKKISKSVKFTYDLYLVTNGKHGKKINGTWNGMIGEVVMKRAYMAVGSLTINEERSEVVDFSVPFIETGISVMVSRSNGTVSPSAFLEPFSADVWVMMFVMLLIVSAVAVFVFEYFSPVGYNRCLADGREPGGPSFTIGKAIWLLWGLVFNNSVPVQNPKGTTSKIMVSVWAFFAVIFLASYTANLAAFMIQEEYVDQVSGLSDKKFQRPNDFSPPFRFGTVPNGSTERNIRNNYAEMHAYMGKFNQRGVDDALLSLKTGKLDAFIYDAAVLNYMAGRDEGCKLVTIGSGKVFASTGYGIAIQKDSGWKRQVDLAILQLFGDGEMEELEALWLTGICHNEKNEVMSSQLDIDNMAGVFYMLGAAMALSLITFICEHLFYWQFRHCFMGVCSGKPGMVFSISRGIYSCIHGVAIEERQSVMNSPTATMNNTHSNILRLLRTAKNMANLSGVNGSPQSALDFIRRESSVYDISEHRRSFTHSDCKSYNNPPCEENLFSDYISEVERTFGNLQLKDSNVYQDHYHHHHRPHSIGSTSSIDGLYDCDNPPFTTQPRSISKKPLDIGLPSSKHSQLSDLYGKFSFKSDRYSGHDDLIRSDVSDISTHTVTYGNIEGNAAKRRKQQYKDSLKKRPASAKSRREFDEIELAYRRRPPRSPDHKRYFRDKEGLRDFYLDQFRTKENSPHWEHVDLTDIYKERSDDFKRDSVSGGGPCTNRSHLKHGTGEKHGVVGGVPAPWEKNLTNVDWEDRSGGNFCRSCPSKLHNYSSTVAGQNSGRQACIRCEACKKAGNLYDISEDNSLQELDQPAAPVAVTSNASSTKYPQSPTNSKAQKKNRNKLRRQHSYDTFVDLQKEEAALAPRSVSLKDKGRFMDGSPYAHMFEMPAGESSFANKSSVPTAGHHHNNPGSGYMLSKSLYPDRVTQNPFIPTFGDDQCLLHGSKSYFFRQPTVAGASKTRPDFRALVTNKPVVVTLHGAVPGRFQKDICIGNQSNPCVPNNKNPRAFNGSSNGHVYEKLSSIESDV
T2 sequence (Q00961 20-1237, other chains not shown): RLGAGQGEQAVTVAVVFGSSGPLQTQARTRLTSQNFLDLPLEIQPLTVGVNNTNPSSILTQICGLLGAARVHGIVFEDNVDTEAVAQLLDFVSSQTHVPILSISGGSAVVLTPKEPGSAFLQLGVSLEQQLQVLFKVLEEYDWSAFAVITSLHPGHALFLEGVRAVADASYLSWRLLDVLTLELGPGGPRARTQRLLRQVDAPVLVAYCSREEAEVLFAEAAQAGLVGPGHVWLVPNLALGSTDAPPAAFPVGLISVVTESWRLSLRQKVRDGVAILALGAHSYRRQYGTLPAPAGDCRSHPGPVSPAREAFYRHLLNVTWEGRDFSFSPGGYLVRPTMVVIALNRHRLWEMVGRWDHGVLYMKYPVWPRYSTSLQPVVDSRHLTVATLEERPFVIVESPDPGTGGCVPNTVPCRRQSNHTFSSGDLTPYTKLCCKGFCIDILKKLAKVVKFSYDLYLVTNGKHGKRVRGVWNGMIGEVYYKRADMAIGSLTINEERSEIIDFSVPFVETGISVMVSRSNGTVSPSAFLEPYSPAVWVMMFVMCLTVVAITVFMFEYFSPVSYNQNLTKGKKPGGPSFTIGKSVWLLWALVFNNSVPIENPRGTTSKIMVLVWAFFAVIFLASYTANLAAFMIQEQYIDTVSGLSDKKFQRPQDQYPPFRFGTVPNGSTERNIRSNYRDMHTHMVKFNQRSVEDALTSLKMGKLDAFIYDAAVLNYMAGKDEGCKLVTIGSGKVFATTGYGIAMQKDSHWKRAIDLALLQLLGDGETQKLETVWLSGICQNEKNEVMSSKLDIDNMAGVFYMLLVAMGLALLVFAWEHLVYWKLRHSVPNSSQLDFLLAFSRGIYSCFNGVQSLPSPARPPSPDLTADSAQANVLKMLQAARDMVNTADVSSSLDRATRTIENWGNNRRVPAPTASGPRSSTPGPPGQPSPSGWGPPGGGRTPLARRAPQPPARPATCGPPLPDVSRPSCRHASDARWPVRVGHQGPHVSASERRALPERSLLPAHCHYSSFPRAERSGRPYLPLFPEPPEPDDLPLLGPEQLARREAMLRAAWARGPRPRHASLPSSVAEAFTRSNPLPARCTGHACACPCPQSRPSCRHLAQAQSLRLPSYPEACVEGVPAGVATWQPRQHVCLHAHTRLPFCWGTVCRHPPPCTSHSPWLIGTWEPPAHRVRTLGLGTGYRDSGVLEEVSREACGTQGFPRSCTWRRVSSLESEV
Sequence of GluK2 (P42260 32-908): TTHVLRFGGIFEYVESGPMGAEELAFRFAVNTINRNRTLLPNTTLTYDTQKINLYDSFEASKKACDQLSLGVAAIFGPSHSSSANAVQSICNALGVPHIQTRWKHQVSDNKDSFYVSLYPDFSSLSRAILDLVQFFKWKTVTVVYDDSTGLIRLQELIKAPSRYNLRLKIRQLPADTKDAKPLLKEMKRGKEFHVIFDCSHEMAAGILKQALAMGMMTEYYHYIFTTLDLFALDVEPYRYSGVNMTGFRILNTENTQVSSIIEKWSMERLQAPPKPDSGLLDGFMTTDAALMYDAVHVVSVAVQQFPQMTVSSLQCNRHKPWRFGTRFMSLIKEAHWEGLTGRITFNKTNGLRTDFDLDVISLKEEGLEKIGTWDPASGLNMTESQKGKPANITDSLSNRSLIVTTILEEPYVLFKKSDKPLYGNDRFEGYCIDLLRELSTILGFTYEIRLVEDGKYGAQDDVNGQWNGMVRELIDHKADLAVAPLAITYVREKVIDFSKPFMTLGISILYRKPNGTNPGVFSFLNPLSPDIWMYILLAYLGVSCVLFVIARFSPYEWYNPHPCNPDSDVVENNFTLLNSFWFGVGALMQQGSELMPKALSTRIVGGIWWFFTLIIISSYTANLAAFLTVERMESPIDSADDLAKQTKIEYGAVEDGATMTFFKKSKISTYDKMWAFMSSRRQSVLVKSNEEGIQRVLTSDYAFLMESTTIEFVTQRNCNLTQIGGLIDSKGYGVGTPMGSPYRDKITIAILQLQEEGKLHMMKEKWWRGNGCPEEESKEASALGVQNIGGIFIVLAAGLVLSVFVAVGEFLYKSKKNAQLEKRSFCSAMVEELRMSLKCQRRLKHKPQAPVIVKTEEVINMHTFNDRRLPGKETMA
Sequence of GluN1/GluN2D NMDA receptors (Rattus norvegicus, UniProt P35439+Q62645) (Q62645 28-1323, other chains not shown): as the sequence (Q62645 28-1323, other chains not shown) above

**Q.** With `CCOc1ccc(OCC2c3ccc(OC(C)C)cc3CCN2C(=O)c2cccc(OC)c2)cc1` (stereo not shown) [Compound 101, (1-((4-Ethoxyphenoxy)methyl)-6-isopropoxy-3,4-dihydroisoquinolin-2(1H)-yl)(3-methoxyphenyl)methanone] as the compound, how does the “activity / subunit selectivity in words” value [1] read?
**A.** Its value is “inactive”.

**Q.** For `CCOc1ccc(OCC2c3ccc(OC(C)C)cc3CCN2C(=O)c2ccc(F)c(Cl)c2)cc1` (stereo not shown) [Compound 108, (3-Chloro-4-fluorophenyl)(1-((4-ethoxyphenoxy)methyl)-6-isopropoxy-3,4-dihydroisoquinolin-2(1H)-yl)methanone], which “activity / subunit selectivity in words” value [1] is on record?
**A.** Its value is “active”.

**Q.** Which solubility [2] does the source give for `CCOc1ccc(OCC2c3ccc(OC(C)C)cc3CCN2C(=O)c2cc(Cl)cc(Cl)c2)cc1` (stereo not shown) [Compound 109] here?
**A.** The solubility was less than 30 µM.

**Q.** With `CCOc1ccc(OCC2c3ccc(OC(C)C)cc3CCN2C(=O)c2cccc(-c3ccccc3)c2)cc1` (stereo not shown) [Compound 99, Biphenyl-3-yl(1-((4-ethoxyphenoxy)methyl)-6-isopropoxy-3,4-dihydroisoquinolin-2(1H)-yl)methanone] as the compound, how does the solubility [2] read?
**A.** The solubility was less than 30 µM.

**Q.** And the “activity / subunit selectivity in words” value [1]?
**A.** Its value is “inactive”.

**Q.** For `CCOc1ccc(OC[C@H]2c3ccc(OC(C)C)cc3CCN2C(=S)c2cccc(F)c2)cc1` [R-(+)-142, (R)-(1-((4-Ethoxyphenoxy)methyl)-6-isopropoxy-3,4-dihydroisoquinolin-2(1H)-yl)(3-fluorophenyl)methanethione], which “activity / subunit selectivity in words” value [1] is on record?
**A.** Its value is “no detectable potentiation of any NMDA receptor subunit combinations”.

**Q.** With `COc1ccc(OCC2c3cc(OC)c(OC)cc3CCN2C(=O)c2cccc(Cl)c2)cc1` (stereo not shown) [CIQ] as the compound, how does the protein binding [3] read?
**A.** Its protein binding is “high protein binding”.

**Q.** What about the “effect on AMPA or kainate receptors” value [4] of the same compound?
**A.** Its value is “no effect on AMPA or kainate receptors”.

**Q.** And the brain penetration [5]?
**A.** Its brain penetration is “brain penetrant”.

**Q.** For `CCOc1ccc(OCC2c3ccc(OC(C)C)cc3CCN2C(=O)c2ccc(Cl)cc2)cc1` (stereo not shown) [Compound 105, (4-Chlorophenyl)(1-((4-ethoxyphenoxy)methyl)-6-isopropoxy-3,4-dihydroisoquinolin-2(1H)-yl)methanone], which “activity / subunit selectivity in words” value [1] is on record?
**A.** Its value is “complete loss of activity”.

**Q.** Which “activity / subunit selectivity in words” value [1] does the source give for `CCOc1ccc(OCC2c3ccc(OC(C)C)cc3CCN2C(=O)c2ccccc2)cc1` (stereo not shown) [Compound 95, (1-((4-Ethoxyphenoxy)methyl)-6-isopropoxy-3,4-dihydroisoquinolin-2(1H)-yl)(phenyl)methanone] here?
**A.** The value was “inactive at all subunits”.

**Q.** Which “activity / subunit selectivity in words” value [1] does the source give for `CCOc1ccc(OCC2c3ccc(OC(C)C)cc3CCN2C(=O)c2ccc(F)c(F)c2)cc1` (stereo not shown) [Compound 106, (3,4-Difluorophenyl)(1-((4-ethoxyphenoxy)methyl)-6-isopropoxy-3,4-dihydroisoquinolin-2(1H)-yl)methanone] here?
**A.** Its value is “active”.

**Q.** With `CC(C(O)c1ccc(O)cc1)N1CCC(Cc2ccccc2)CC1` (stereo not shown) [ifenprodil] as the compound, how does the “fold more potent at GluN2B-containing receptors compared to GluN2A, GluN2C, or GluN2D” value (GluN1/GluN2B receptors) read?
**A.** The value was greater than 100 fold.

**Q.** For `CCOc1ccc(OCC2c3ccc(OC(C)C)cc3CCN2C(=O)c2cccc(C)c2)cc1` (stereo not shown) [Compound 100, (1-((4-Ethoxyphenoxy)methyl)-6-isopropoxy-3,4-dihydroisoquinolin-2(1H)-yl)(m-tolyl)methanone], which “activity / subunit selectivity in words” value [1] is on record?
**A.** The value was “inactive”.

**Q.** For `COc1ccc(OCC2c3ccc(OC)cc3CCN2C(=O)c2cccc(Cl)c2)cc1` (stereo not shown) [Compound 86], which “I30μM / Icontrol (mean ± SEM, %) GluN2D” value [6] is on record?
**A.** Its value is 215 ± 19%.

**Q.** And the “I30μM / Icontrol (mean ± SEM, %) GluN2C” value [7]?
**A.** Its value is 213 ± 13%.

**Q.** With `CCOc1ccc(OCC2c3ccc(OC(C)C)cc3CCN2C(=O)c2ccccc2F)cc1` (stereo not shown) [Compound 102, (1-((4-Ethoxyphenoxy)methyl)-6-isopropoxy-3,4-dihydroisoquinolin-2(1H)-yl)(2-fluorophenyl)methanone] as the compound, how does the “activity / subunit selectivity in words” value [1] read?
**A.** Its value is “complete loss of activity”.

**Q.** For `COc1ccc(OCC2c3ccc(OC(C)C)cc3CCN2C(=O)c2cccc(Cl)c2)cc1` (stereo not shown) [Compound 2, (3-Chlorophenyl)(6-isopropoxy-1-((4-methoxyphenoxy)methyl)-3,4-dihydroisoquinolin-2(1H)-yl)methanone], which “agonist activity at GluN1/GluN2C” value [8, 13] is on record?
**A.** The value was “no agonist activity”.

**Q.** What about the “agonist activity at GluN1/GluN2D” value [9, 13] of the same compound?
**A.** The value was “no agonist activity”.

**Q.** And the “response as % of the control response to glutamate alone, GluK2” value (GluK2)?
**A.** The value was 96+9%.

**Q.** What about the “agonist activity at GluN1/GluN2B” value [10, 13] of the same compound?
**A.** Its value is “no agonist activity”.

**Q.** What about the brain concentration ([11]; 10 mg/kg IP, at 15 and 30 min) of the same compound?
**A.** Its brain concentration is 303 ng/mL.

**Q.** And the peak plasma concentration ([11]; 10 mg/kg IP, at 2 hours, n=3 mice)?
**A.** The peak plasma concentration was 789 ng/mL and 1.7 μM.

**Q.** What about the behavioral observations post-dosing ([11]; 10 mg/kg i.p.) of the same compound?
**A.** Its behavioral observations post-dosing is “No behavioral abnormalities were observed”.

**Q.** And the concentration at 4 h ([11]; C57Bl/6, mouse, brain, intraperitoneal, 10 mg/kg)?
**A.** Its concentration at 4 h is 169 ng/mL.

**Q.** And the Tmax ([11]; C57Bl/6, mouse, plasma, ip, 10 mg/kg)?
**A.** The Tmax was 2 h.

**Q.** Which results are given for `COc1ccc(OCC2c3ccc(OC(C)C)cc3CCN2C(=O)c2cccc(F)c2)cc1` (stereo not shown) [Compound 114, (3-Fluorophenyl)(6-isopropoxy-1-((4-methoxyphenoxy)methyl)-3,4-dihydroisoquinolin-2(1H)-yl)methanone]?
**A.** EC50 [12]: 11 µM; fitted maximum response GluN2D [9, 14]: 493%; fitted maximum response GluN2B [10, 14]: 391%

**Q.** What does the source list for `CCOc1ccc(OCC2c3ccc(OC(C)C)cc3CCN2C(=O)c2ccc(Cl)c(Cl)c2)cc1` (stereo not shown) [Compound 107, (3,4-Dichlorophenyl)(1-((4-ethoxyphenoxy)methyl)-6-isopropoxy-3,4-dihydroisoquinolin-2(1H)-yl)methanone]?
**A.** solubility [2]: < 10 µM; activity / subunit selectivity in words [1]: active

**Q.** For `CCOc1ccc(OCC2c3ccc(OC(C)C)cc3CCN2C(=O)c2cccc(F)c2)cc1` (stereo not shown) [Compound 97, (1-((4-Ethoxyphenoxy)methyl)-6-isopropoxy-3,4-dihydroisoquinolin-2(1H)-yl)(3-fluorophenyl)methanone], which “activity / subunit selectivity in words” value [1] is on record?
**A.** The value was “active at only GluN2B”.

**Q.** With `CCOc1ccc(OCC2c3ccc(OC(C)C)cc3CCN2C(=S)c2cccc(F)c2)cc1` (stereo not shown) [Compound 142, (1-((4-Ethoxyphenoxy)methyl)-6-isopropoxy-3,4-dihydroisoquinolin-2(1H)-yl)(3-fluorophenyl)methanethione] as the compound, how does the “fold increase in potency at GluN2B, thioamide compared to amide” value [10] read?
**A.** Its value is 13 fold.

**Q.** With `CCOc1ccc(OCC2c3ccc(OC(C)C)cc3CCN2C(=O)c2ccccc2Cl)cc1` (stereo not shown) [Compound 103, (2-Chlorophenyl)(1-((4-ethoxyphenoxy)methyl)-6-isopropoxy-3,4-dihydroisoquinolin-2(1H)-yl)methanone] as the compound, how does the “activity / subunit selectivity in words” value [1] read?
**A.** The value was “complete loss of activity”.

**Q.** Which “activity / subunit selectivity in words” value [1] does the source give for `COc1ccccc1OCC1c2ccc(OC(C)C)cc2CCN1C(=O)c1cccc(Cl)c1` (stereo not shown) [Compound 111, (3-Chlorophenyl)(6-isopropoxy-1-((2-methoxyphenoxy)methyl)-3,4-dihydroisoquinolin-2(1H)-yl)methanone] here?
**A.** Its value is “all activity was lost”.

**Q.** For `CC(C)Oc1ccc(OCC2c3ccc(OC(C)C)cc3CCN2C(=O)c2cccc(Cl)c2)cc1` (stereo not shown) [Compound 113, (3-Chlorophenyl)(6-isopropoxy-1-((4-isopropoxyphenoxy)methyl)-3,4-dihydroisoquinolin-2(1H)-yl)methanone], which “activity / subunit selectivity in words” value [1] is on record?
**A.** Its value is “moderately GluN2B-selective”.

**Q.** Which “activity / subunit selectivity in words” value [1] does the source give for `CCOc1ccc(OCC2c3ccc(OC(C)C)cc3CCN2C(=O)c2ccc(F)cc2)cc1` (stereo not shown) [Compound 104, (1-((4-Ethoxyphenoxy)methyl)-6-isopropoxy-3,4-dihydroisoquinolin-2(1H)-yl)(4-fluorophenyl)methanone] here?
**A.** Its value is “complete loss of activity”.

**Q.** Which results are given for `COc1ccc(OCC2c3ccc(OC(C)C)cc3CCN2C(=S)c2cccc(Cl)c2)cc1` (stereo not shown) [Compound 138, (3-Chlorophenyl)(6-isopropoxy-1-((4-methoxyphenoxy)methyl)-3,4-dihydroisoquinolin-2(1H)-yl)methanethione]?
**A.** fold increase in potency at GluN2C, thioamide compared to amide ([8]; 138 vs 2): ~4 fold; fold increase in potency at GluN2D, thioamide compared to amide ([9]; 138 vs 2): ~10 fold; fold increase in potency at GluN2B, thioamide compared to amide [10]: ~10 fold
